Results as given in ChEMBL document CHEMBL5038653, “A Brain-Penetrant and Bioavailable Pyrazolopiperazine BACE1 Inhibitor Elicits Sustained Reduction of Amyloid β In Vivo” (ACS Med Chem Lett, 2022).
Values after ≈ are worked out from the molar mass of the structure shown.

Tests used:
[1] = Cmax in mouse at 2.1 mg/kg, po; type: ADME, organism-based; design: route oral, dose 2.1 mg/kg; details: in vivo
[2] = AUC (0 to infinity) in mouse at 0.28 mg/kg, iv; type: ADME, organism-based; design: time infinity, route intravenous, dose 0.28 mg/kg; details: in vivo
[3] = molecular target: Cytochrome P450 2D6 (Homo sapiens, UniProt P10635); test: Inhibition of human CYP2D6 by fluorescence plate reader analysis; type: ADME
Chain of Cytochrome P450 2D6 (P10635 whole entry): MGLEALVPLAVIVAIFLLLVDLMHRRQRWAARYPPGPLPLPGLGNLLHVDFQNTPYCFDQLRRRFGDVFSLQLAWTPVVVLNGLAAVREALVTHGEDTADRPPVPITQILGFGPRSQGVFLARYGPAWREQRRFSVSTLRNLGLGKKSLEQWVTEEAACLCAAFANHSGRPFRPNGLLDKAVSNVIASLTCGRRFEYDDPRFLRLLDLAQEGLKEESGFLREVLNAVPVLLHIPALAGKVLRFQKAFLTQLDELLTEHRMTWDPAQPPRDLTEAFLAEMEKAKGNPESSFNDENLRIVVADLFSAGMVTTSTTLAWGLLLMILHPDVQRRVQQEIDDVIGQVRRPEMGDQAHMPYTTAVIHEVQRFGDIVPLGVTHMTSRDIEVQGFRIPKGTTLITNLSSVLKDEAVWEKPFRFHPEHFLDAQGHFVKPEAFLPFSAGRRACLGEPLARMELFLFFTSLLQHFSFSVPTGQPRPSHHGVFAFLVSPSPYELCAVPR

[4] = Ratio of unbound drug concentration in brain to blood in CD-1 mouse at 10 mg/kg, po measured at 1 hr post dose; type: ADME, organism-based
[5] = Half life in rat at 0.25 mg/kg, iv; type: ADME, organism-based; details: in vivo
[6] = Metabolic stability in human liver microsomes assessed as metabolite formation after 15 mins in presence of NADPH by LC-MS analysis; type: ADME, Microsome; details: 0.25 h
[7] = Cmax in rat at 2.3 mg/kg, po; type: ADME, organism-based; design: route oral, dose 2.3 mg/kg; details: in vivo
[8] = molecular target: T1, Cytochrome P450 1A2 (Homo sapiens, UniProt P05177); test: Inhibition of human CYP1A2 by fluorescence plate reader analysis; type: ADME
T1 sequence (P05177 whole entry): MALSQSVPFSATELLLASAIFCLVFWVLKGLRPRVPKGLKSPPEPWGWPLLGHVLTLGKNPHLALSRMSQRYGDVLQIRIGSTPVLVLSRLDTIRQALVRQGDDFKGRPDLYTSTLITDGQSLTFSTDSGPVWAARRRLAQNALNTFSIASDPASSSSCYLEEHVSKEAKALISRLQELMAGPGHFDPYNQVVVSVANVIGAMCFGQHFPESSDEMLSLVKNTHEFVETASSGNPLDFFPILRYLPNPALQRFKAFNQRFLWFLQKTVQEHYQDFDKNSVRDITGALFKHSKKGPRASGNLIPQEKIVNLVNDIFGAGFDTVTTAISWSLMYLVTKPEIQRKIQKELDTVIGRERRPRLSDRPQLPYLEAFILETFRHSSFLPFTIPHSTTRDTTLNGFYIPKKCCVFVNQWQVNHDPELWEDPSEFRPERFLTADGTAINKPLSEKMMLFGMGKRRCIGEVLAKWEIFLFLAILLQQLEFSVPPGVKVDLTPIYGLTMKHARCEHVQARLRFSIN

[9] = molecular target: Voltage-gated inwardly rectifying potassium channel KCNH2 (Homo sapiens, UniProt Q12809); test: Inhibition of hERG expressed in HEK293 cells at -80 mV holding potential by automated patch-clamp method; type: toxicity, cell-based
Chain of Voltage-gated inwardly rectifying potassium channel KCNH2 (Q12809 whole entry): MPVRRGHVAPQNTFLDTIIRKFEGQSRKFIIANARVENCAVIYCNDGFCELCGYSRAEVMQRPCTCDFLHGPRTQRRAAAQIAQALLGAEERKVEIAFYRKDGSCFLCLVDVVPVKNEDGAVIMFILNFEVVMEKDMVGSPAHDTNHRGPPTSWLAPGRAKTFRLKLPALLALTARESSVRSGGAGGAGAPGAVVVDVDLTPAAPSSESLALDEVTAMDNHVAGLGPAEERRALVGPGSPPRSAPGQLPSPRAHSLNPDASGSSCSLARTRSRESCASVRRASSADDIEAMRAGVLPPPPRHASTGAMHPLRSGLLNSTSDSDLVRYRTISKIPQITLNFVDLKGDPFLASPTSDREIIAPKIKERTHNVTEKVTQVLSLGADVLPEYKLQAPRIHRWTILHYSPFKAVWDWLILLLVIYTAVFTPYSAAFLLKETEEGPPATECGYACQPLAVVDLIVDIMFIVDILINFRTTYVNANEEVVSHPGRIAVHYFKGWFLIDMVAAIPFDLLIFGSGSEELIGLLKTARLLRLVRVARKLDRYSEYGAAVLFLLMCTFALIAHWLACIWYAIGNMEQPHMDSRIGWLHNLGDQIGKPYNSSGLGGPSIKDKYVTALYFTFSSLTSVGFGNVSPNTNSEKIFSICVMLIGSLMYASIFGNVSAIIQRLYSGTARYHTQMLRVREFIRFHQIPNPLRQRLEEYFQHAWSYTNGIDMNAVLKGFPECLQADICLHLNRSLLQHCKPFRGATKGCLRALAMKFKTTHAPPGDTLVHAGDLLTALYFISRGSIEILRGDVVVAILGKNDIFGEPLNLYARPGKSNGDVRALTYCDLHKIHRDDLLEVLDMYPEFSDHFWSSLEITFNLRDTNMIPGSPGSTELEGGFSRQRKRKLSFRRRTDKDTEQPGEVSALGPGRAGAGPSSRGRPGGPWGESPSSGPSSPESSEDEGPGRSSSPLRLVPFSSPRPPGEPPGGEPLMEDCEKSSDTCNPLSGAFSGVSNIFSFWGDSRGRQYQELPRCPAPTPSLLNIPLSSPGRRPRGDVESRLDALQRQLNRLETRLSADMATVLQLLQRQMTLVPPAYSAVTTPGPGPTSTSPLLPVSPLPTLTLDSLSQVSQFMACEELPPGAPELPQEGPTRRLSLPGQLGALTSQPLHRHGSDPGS

[10] = Free drug concentration in human plasma measured after 4.5 hrs by HPLC-MS/MS method; type: ADME, cell-free
[11] = Clearance in mouse plasma at 0.28 mg/kg, iv; type: ADME, organism-based
[12] = In vivo inhibition of CD-1 mouse assessed as remaining amyloid beta (1 to 42 residues) levels in CSF at 10 mg/kg, po measured at 4 hrs; type: functional
[13] = Clearance in mouse at 0.28 mg/kg, iv relative to liver blood flow; type: ADME, organism-based; details: in vivo
[14] = Cardiotoxicity in guinea pig assessed as effect on QT cB interval upto 5 mg/kg, iv administered over 10 mins at 30 mins interval by ECG analysis; type: toxicity, organism-based, Cavia porcellus; details: in vivo
[15] = Apparent permeability across apical to basolateral side in dog MDCK-MDR1 cells at 5 uM incubated for 120 mins; type: ADME, cell-based, Canis lupus familiaris
[16] = AUC (0 to last) in rat at 2.3 mg/kg, po; type: ADME, organism-based; design: time 0 - last, route oral, dose 2.3 mg/kg; details: in vivo
[17] = Half life in mouse at 0.28 mg/kg, iv; type: ADME, organism-based; details: in vivo
[18] = In vivo inhibition of CD-1 mouse assessed as remaining amyloid beta (1 to 42 residues) levels in CSF at 10 mg/kg, po measured at 2 hrs; type: functional
[19] = Ratio of unbound drug concentration in brain to blood in CD-1 mouse at 10 mg/kg, po measured at 2 hr post dose; type: ADME, organism-based
[20] = Ratio of unbound drug concentration in brain to blood in CD-1 mouse at 10 mg/kg, po measured at 4 hr post dose; type: ADME, organism-based
[21] = Cardiotoxicity in guinea pig assessed as effect on QRS interval upto 5 mg/kg, iv administered over 10 mins at 30 mins interval by ECG analysis; type: toxicity, organism-based, Cavia porcellus; details: in vivo
[22] = Drug level in CD-1 mouse brain at 10 mg/kg, po measured at 4 hr post dose; type: ADME, organism-based; details: read-out: Ct
[23] = Free drug concentration in dog plasma measured after 4.5 hrs by HPLC-MS/MS method; type: ADME, cell-free, Canis lupus familiaris
[24] = Oral bioavailability in rat at 2.3 mg/kg; type: ADME, organism-based; details: in vivo
[25] = molecular target: T2, Cytochrome P450 2C8 (Homo sapiens, UniProt P10632); test: Inhibition of human CYP2C8 by fluorescence plate reader analysis; type: ADME
T2 sequence (P10632 whole entry): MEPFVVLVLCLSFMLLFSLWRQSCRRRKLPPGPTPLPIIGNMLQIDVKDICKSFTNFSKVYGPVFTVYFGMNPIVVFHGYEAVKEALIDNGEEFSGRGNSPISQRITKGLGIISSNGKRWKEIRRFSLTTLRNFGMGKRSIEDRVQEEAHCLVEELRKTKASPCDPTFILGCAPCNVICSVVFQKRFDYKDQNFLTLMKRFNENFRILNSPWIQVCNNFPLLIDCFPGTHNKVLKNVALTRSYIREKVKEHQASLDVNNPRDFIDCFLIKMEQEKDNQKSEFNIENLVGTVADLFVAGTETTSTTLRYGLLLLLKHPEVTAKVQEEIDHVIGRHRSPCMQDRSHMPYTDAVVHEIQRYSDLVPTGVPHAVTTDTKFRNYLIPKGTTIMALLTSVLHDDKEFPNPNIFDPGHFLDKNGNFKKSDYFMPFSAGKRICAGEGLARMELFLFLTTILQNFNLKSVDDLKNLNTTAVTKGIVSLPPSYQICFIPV

[26] = In vivo inhibition of BACE1 in Beagle dog assessed as reduction of amyloid beta (1 to 42 residues) levels in CSF administered orally by electrochemiluminescence assay; type: functional, organism-based, Canis lupus familiaris
[27] = Toxicity in guinea pig assessed as effect on body temperature at 0.63 to 5 mg/kg, iv administered over 10 mins at 30 mins interval; type: organism-based, Cavia porcellus; details: in vivo, dose 0.63-5 mg/kg
[28] = Tmax in dog at 2.5 mg/kg, po; type: ADME, organism-based, Canis lupus familiaris; details: in vivo
[29] = Cmax in dog at 2.5 mg/kg, po; type: ADME, organism-based, Canis lupus familiaris; design: route oral, dose 2.5 mg/kg; details: in vivo
[30] = Cardiotoxicity in guinea pig assessed as effect on PQ interval upto 5 mg/kg, iv administered over 10 mins at 30 mins interval by ECG analysis; type: toxicity, organism-based, Cavia porcellus; details: in vivo
[31] = Free drug concentration in rat brain measured after 5 hrs by HPLC-MS/MS method; type: ADME, tissue-based
[32] = Drug level in CD-1 mouse brain at 10 mg/kg, po measured at 2 hr post dose; type: ADME, organism-based; details: read-out: Ct
[33] = molecular target: Cytochrome P450 3A4 (Homo sapiens, UniProt P08684); test: Inhibition of human CYP3A4 using midazolam as substrate by fluorescence plate reader analysis; type: ADME
Chain of Cytochrome P450 3A4 (P08684 whole entry): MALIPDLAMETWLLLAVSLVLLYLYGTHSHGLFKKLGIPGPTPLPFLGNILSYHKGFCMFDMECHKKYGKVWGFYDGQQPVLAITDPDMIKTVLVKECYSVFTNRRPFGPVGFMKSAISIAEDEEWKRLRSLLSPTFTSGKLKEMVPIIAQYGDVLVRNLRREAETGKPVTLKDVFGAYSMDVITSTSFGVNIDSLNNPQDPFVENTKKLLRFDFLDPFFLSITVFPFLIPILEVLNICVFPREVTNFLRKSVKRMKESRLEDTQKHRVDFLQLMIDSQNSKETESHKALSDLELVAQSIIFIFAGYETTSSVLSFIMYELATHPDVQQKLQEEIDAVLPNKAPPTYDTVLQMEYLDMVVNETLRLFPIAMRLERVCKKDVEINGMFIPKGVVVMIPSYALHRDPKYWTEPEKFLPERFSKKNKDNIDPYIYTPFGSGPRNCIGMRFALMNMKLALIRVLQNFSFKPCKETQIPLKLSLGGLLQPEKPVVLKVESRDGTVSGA

[34] = AUC (0 to last) in mouse at 2.1 mg/kg, po; type: ADME, organism-based; design: route oral, time 0 - last, dose 2.1 mg/kg; details: in vivo
[35] = Dissociation constant, pKa of the compound by fast UV-spectrometric titration analysis; type: physicochemical

COc1cnc(C(=O)Nc2ccc(F)c([C@]3(C)Cn4nc(C#N)cc4C(N)=N3)c2)cn1
Cmax [1]: 160 ng/mL | AUC [2]: 206 ng·h/mL | IC50 [3]: > 30 µM | Kp uu at 1 h [4]: 0.3 | half-life [5]: 258 min | Drug metabolism [6]: 8% | Cmax [7]: 124 ng/mL | IC50 [8]: > 30 µM | IC50 [9]: > 10 µM | fraction unbound at 4.5 h [10]: 0.28 | clearance [11]: 23 mL/min/kg | Activity [12]: 45% | CL [13]: 25% | Activity [14]: Non-Toxic | Papp A→B at 2 h, 5 µM [15]: 13.1 ×10⁻⁶ cm/s | AUClast [16]: 1170 ng·h/mL | half-life [17]: 168 min | Activity [18]: 53% | Kp uu at 2 h [19]: 0.29 | Kp uu at 4 h [20]: 0.22 | Activity [21]: Non-Toxic | concentration at 4 h [22]: 402 ng/g | fraction unbound at 4.5 h [23]: 0.24 | bioavailability [24]: 59% | IC50 [25]: > 30 µM | EC90 [26]: 44 ng/mL (≈ 0.105 µM) | EC50 ([26]; Canis lupus familiaris, Beagle): 7.5 ng/mL (≈ 0.0178 µM) | Activity [27]: Non-Toxic | Tmax [28]: 2.3 h | Cmax [29]: 352 ng/mL | Activity [30]: Non-Toxic | fraction unbound at 5 h [31]: 0.015 | concentration at 2 h [32]: 888 ng/g | IC50 [33]: > 30 µM | AUClast [34]: 1910 ng·h/mL | pKa [35]: 7.1
